From US12492182B2, “Hydroxytriazine compounds and pharmaceutical use thereof” (Japan Tobacco Inc., priority 2015, dated 2025)

How the values were obtained:
human mPGES-1 = target: T1, human mPGES-1 (Homo sapiens, UniProt O14684); test: Evaluation of human mPGES-1 enzyme inhibitory activity (HTRF measurement of PGE2); assay type: biochemical; conditions: IC50 value; microsome fraction of CHO-S cells expressing human mPGES-1, PGH2 substrate, PGE2 by HTRF; read-out: humans mPGES-1 enzyme inhibitory activity
T1 construct: made in house; host or cells: Chinese hamster ovary-derived cells (FreeStyle CHO-S), transient transfection of pcDNA3.1(+)/human mPGES-1; microsome fraction
T1 sequence (O14684 1-152): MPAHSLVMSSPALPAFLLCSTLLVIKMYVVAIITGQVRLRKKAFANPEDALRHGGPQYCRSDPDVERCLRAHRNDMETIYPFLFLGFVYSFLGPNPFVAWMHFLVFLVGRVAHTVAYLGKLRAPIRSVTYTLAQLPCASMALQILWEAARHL
Method: Experimental Example 1: Evaluation of Human mPGES-1 Enzyme Inhibitory Activity
The human mPGES-1 enzyme inhibitory activity of a test article was evaluated according to the report of Xu et al. (XU, D et al. MF63 [2-(6-chloro-1H-phenanthro[9,10-d]imidazol-2-yl)-isophthalonitrile], a selective microsomal prostaglandin E synthase-1 inhibitor relieves pyresis and pain in preclinical models of inflammation. J Pharmacol Exp Ther. September 2008, Vol. 326, No. 3, pages 754-763). The amount of PGE2 produced by human mPGES-1 in the presence of a test article was measured by the HTRF (homogeneous time resolved fluorescence) method, and the human mPGES-1 enzyme inhibitory activity of the test article was determined.
1) Preparation of Human mPGES-1 Expressing Cell Microsome Fraction
A DNA fragment containing human mPGES-1, which is added with a BamHI recognition cleavage sequence just before the translation initiation codon and an EcoRI recognition cleavage sequence just after the translation termination codon, was amplified by the PCR (Polymerase Chain Reaction) method using a human mPGES-1 expression plasmid DNA (pME-18S/iPGES-1) prepared in-house as a template. The purified DNA fragment was digested with BamHI and EcoRI, and ligated to pcDNA3.1(+) (Invitrogen, model number V790-20), similarly_digested with BamHI and EcoRI, by using a DNA Ligation kit ver. 2.1 (Takara Bio, model number 6022). The human mPGES-1 expression plasmid DNA was isolated from Escherichia coli DH5a (TOYOBO, model number DNA-903) transformed with the obtained ligation product. The base sequence of human mPGES-1 cloned to a vector was determined by the Dye Terminator method using BigDye Terminator v3.1 Cycle Sequencing Kit (Applied Biosystems, #4337455). The determined sequence was identical with the sequence of the protein translational region of human mPGES-1 (Accession number NM 004878) registered in the NCBI Reference Database.
Human mPGES-1 expression plasmid DNA was transfected into Chinese hamster ovary-derived cells (FreeStyle CHO-S Cell, Invitrogen, #R^800-07) by using a transgene reagent (FreeStyle MAX Reagent (Invitrogen, #16447-100)), and cultured with shaking (8% CO2, 37° C.) in a medium containing 8 mmol/L L-glutamine (GIBCO FreeStyle CHO Expression Medium, Invitrogen, #12651-022) for 48 hr.
The CHO-S cells were suspended in Homogenate Buffer (100 mmol/L potassium phosphate (pH 7.4), 250 mmol/L Sucrose, 100 mmol/L EDTA, complete EDTA free (Roche, #1873580)). Using an ultrasonic disruptor UD-201 (Tomy Seiko), the suspended cells were disrupted at output:3, duty cycle:50 for 30 seconds. The precipitate was removed by centrifugation (1,000×g, 5 min, 4° C.), and the supernatant was centrifuged (5,000×g, 10 min, 4° C.). The supernatant was further centrifuged (105,000×g, 60 min, 4° C.). The obtained precipitate was suspended in Resuspension Buffer (100 mmol/L potassium phosphate (pH 7.4), 250 mmol/L sucrose, 100 mmol/L EDTA, 10% glycerol) to give a microsome fraction.
The protein concentration of the microsome fraction was measured by the Bradford method (Protein Assay Kit, Bio-Rad). The microsome fraction was rapidly frozen in liquid nitrogen and preserved at −80° C. Human mPGES-1 in the microsome fraction was detected by Western Blot using rabbit anti-mPGES-1 polyclonal antibody (ThermoFisher Scientific, #PA1-10264).
2) Evaluation of Human mPGES-1 Enzyme Inhibitory Activity
A test article solution diluted with 0.1 mol/L potassium phosphate, pH 7.4 (hereinafter to be referred to as KPB) or DMSO (Nacalai Tesque, #13407-45) was added at 5 μL/well to 96 well V-bottom plate (Corning, #3363). The final DMSO concentration during the reaction was set to 2%(v/v). Furthermore, a microsome fraction of CHO-S cells expressing human mPGES-1, which was diluted with reduced GSH (12.5 mmol/L KPB solution, SIGMA, #G6529-25G) such that the protein concentration was 5 μg/mL, was added at 20 μL/well. […]

A549 cell = test: Evaluation of PGE2 production inhibitory action using A549 cell (IL-1β stimulated); assay type: cell-based, human; conditions: Homo sapiens, A549, 18 h, IC50 value; A549 cell, recombinant IL-1β 1 ng/mL, 18 hr, PGE2 in supernatant; read-out: cell PGE2 production inhibitory activity
Method: Experimental Example 2: Evaluation of PGE2 Production Inhibitory Action Using A549 Cell
A549 cell (Japan Health Sciences Foundation Research Resources Bank), which is cell line derived from humans lung cancer, was suspended in assay medium (Ham's F-12K (Wako, #080-08565) containing 2% FBS (Hyclone Laboratories, #SH30910.03), 100 units/mL penicillin and 100 μg/mL streptomycin (Invitrogen, #15140-122)), the suspension was added at 2.5×10^4 cells/100 μL/well to 96 well flat-bottom plate (Corning, #353072), and the plate was left standing for 20 hr in a CO2 incubator set at 37° C. The test article was serially diluted with DMSO (Nacalai Tesque, #13407-45), and then 20-fold diluted with the assay medium to prepare a test article solution having a ten-fold concentration of the final concentration. The final DMSO concentration during the reaction was set to 0.5% (v/v). The medium was removed from the plate in which the cell was added, new assay medium was added at 160 μL/well to the plate, and the plate was left standing for 10 min in a CO2 incubator. Then, the test article solution was added at 20 μL/well to the plate, and the plate was left standing for 30 min in a CO2 incubator. Next, recombinant humans IL-1β (R&D Systems, #201-LB) as a stimulant to enhance PGE2 production due to increase of mPGES-1 mRNA expression was added at 20 μL/well (the final concentration was 1 ng/mL) to the plate, and the plate was left standing for 18 hr in a CO2 incubator. The supernatant was collected at 180 μL/well, and the PGE2 concentration was measured using Prostaglandin E2 assay (CISbio Bioassays, #62P2APEC) according to the manual. As the reference standard for analytical curve, PGE2 (Cayman Chemical, #14010) was used. Using EnVision 2104 (Perkin Elmer), the time-resolved fluorescence at 620 nm and 665 nm relative to the excitation light at 337 nm was measured. PGE2 concentration was extrapolated from the PGE2 analytical curve. Average of the PGE2 concentrations of the respectively-treated wells was used as the data.
The PGE2 production inhibitory activity (%) of the test article was calculated according to the following Formula 3. PGE2 production inhibitory activity(%)=(PGE2A−PGE2X)/(PGE2A−PGE2B)×100 [Formula 3] • PGE2A: PGE2 concentration of vehicle-treated well • PGE2B: PGE2 concentration of blank well (no addition of recombinant humans IL-1B) • PGE2X: PGE2 concentration of test article-treated well

Row | SMILES | IC50 (human mPGES-1) | IC50 (A549 cell)
1 | COC1(C(=O)NCc2ccc(Cl)c(-c3nc(O)nc(-c4cccc(C(C)(C)C)c4)n3)c2)CCCC1 [Example 22] | 0.9 nM | 16 nM
2 | COC1(C(=O)NCc2ccc(Cl)c(-c3nc(O)nc(-c4cccc(C(C)(C)C)c4)n3)c2)CCCCC1 [Example 24] | 1.6 nM | 8.2 nM
3 | CCC[C@@H](C)Oc1ccc(-c2nc(O)nc(-c3cc(CNC(=O)C(C)(C)C(F)(F)F)ccc3Cl)n2)cn1 [Example 25, N-(4-chloro-3-{4-hydroxy-6-[6-((R)-1-methylbutoxy)pyridin-3-yl]-1,3,5-triazin-2-yl}benzyl)-3,3,3-trifluoro-2,2-dimethylpropionamide] | 3.1 nM | 2.9 nM
4 | COc1ccc(-c2nc(O)nc(-c3cc(CNC(=O)C4(OC)CCCCC4)ccc3Cl)n2)cn1 [Example 28] | 1.8 nM | 100 nM
5 | COc1ccc(-c2nc(O)nc(-c3cc(CNC(=O)C4(C(F)(F)F)CCCC4)ccc3Cl)n2)cn1 [Example 29] | 0.8 nM | 69 nM
6 | COc1ccc(-c2nc(O)nc(-c3cc(CNC(=O)C4(C(F)(F)F)CCCCC4)ccc3Cl)n2)cn1 [Example 30] | 0.8 nM | 33 nM
7 | CCOc1ccc(-c2nc(O)nc(-c3cc(CNC(=O)C4(OC)CCCCC4)ccc3Cl)n2)cn1 [Example 31] | 1 nM | 86 nM
8 | CCOc1ccc(-c2nc(O)nc(-c3cc(CNC(=O)C4(C(F)(F)F)CCCC4)ccc3Cl)n2)cn1 [Example 32] | 0.7 nM | 40 nM
9 | CCOc1ccc(-c2nc(O)nc(-c3cc(CNC(=O)C4(C(F)(F)F)CCCCC4)ccc3Cl)n2)cn1 [Example 33] | 0.8 nM | 11 nM
10 | COc1ccc(-c2nc(O)nc(-c3cc(CNC(=O)C4(OC)CCCC4)ccc3Cl)n2)cn1 [Example 34] | 1.6 nM | 1000 nM
11 | CCOc1ccc(-c2nc(O)nc(-c3cc(CNC(=O)C4(OC)CCCC4)ccc3Cl)n2)cn1 [Example 37] | 3 nM | 170 nM
12 | CC(C)c1cccc(-c2nc(O)nc(-c3cc(CNC(=O)C4(F)CCCCC4)ccc3Cl)n2)c1 [Example 39] | 3.9 nM | 57 nM
13 | CC(C)c1cccc(-c2nc(O)nc(-c3cc(CNC(=O)C4(F)CCCC4)ccc3Cl)n2)c1 [Example 41] | 1.3 nM | 23 nM
14 | CCCOc1ccc(-c2nc(O)nc(-c3cc(CNC(=O)C4(C(F)(F)F)CCCC4)ccc3Cl)n2)cn1 [Example 45] | 1.3 nM | 8 nM
15 | CCCOc1ccc(-c2nc(O)nc(-c3cc(CNC(=O)C4(C(F)(F)F)CCCCC4)ccc3Cl)n2)cn1 [Example 46] | 3.2 nM | 4.1 nM
16 | CCCCC(C)(C)C(=O)NCc1ccc(Cl)c(-c2nc(O)nc(-c3ccc(OCCC)nc3)n2)c1 [Example 47] | 2.1 nM | 100 nM

Now from value to molecule:

Row | IC50 (human mPGES-1) | IC50 (A549 cell) | SMILES
17 | 7.2 nM | 2.4 nM | CCCCCCOc1ccc(-c2nc(O)nc(-c3cc(CNC(=O)C(C)(C)C(F)(F)F)ccc3Cl)n2)cn1 [Example 23]
18 | 0.7 nM | 260 nM | COc1ccc(-c2nc(O)nc(-c3cc(CNC(=O)C(C)(C)C(F)(F)F)ccc3Cl)n2)cn1 [Example 26]
19 | 0.7 nM | 79 nM | CCOc1ccc(-c2nc(O)nc(-c3cc(CNC(=O)C(C)(C)C(F)(F)F)ccc3Cl)n2)cn1 [Example 27]
20 | 2 nM | 14 nM | COc1ccc(-c2nc(O)nc(-c3cc(CNC(=O)C(C)(C)C(F)(F)F)ccc3Cl)n2)cc1C(C)C [Example 35]
21 | 5.8 nM | 10 nM | COc1ccc(-c2nc(O)nc(-c3cc(CNC(=O)C(C)(C)C(F)(F)F)ccc3Cl)n2)cc1C(C)(C)C [Example 36]
22 | 2.9 nM | 130 nM | CC(C)c1cccc(-c2nc(O)nc(-c3cc(CNC(=O)C4(F)CC4)ccc3Cl)n2)c1 [Example 38]
23 | 0.8 nM | 45 nM | CC(C)Oc1ccc(-c2nc(O)nc(-c3cc(CNC(=O)C(C)(C)C(F)(F)F)ccc3Cl)n2)cn1 [Example 40]
24 | 1.3 nM | 7.9 nM | CC[C@@H](C)Oc1ccc(-c2nc(O)nc(-c3cc(CNC(=O)C(C)(C)C(F)(F)F)ccc3Cl)n2)cn1 [Example 42]
25 | 3.5 nM | 6.5 nM | CCC(C)(C)c1cccc(-c2nc(O)nc(-c3cc(CNC(=O)C(C)(C)C(F)(F)F)ccc3Cl)n2)c1 [Example 43]
26 | 3.6 nM | 26 nM | COC(C)(C)c1cccc(-c2nc(O)nc(-c3cc(CNC(=O)C(C)(C)C(F)(F)F)ccc3Cl)n2)c1 [Example 44]
27 | 0.5 nM | 2.7 nM | CC(C)c1cc(-c2nc(O)nc(-c3cc(CNC(=O)C(C)(C)C(F)(F)F)ccc3Cl)n2)ccc1Cl [Example 48, N-{4-chloro-3-[4-(4-chloro-3-isopropylphenyl)-6-hydroxy-1,3,5-triazin-2-yl]benzyl}-3,3,3-trifluoro-2,2-dimethylpropionamide]
